From the supplement of paper PMC10307832

Legend:
Test in all cases: relative viability (nuclei count vs DMSO), 5 days (fraction); higher = more cells survive
[1] = compound: Cc1ccc2nc(NCCN)c3ncc(C)n3c2c1 + Cc1cc(Nc2cc(N3CCN(C)CC3)nc(Sc3ccc(NC(=O)C4CC4)cc3)n2)n[nH]1 [Tozasertib] (partner 0.1 µM)
Method in brief: (§1)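 Values are medians from duplicate plates. Each reflects relative viability, defined as the nuclei count of treated wells over that of vehicle wells. Lung cancer cell lines in 1536-well plates were pin-tool dosed one day after seeding with one drug alone or with a fixed anchor-drug dose plus five library-drug doses (not always all listed) in √10 steps, then fixed, stained and imaged at 4× after 5 days.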

Salubrinal + Bortezomib = compound: O=C(/C=C/c1ccccc1)NC(NC(=S)Nc1cccc2cccnc12)C(Cl)(Cl)Cl [Salubrinal] + CC(C)C[C@H](NC(=O)[C@H](Cc1ccccc1)NC(=O)c1cnccn1)B(O)O [Bortezomib] (partner 0.002 µM)
Method in brief: as §1

Salubrinal + Foretinib = compound: O=C(/C=C/c1ccccc1)NC(NC(=S)Nc1cccc2cccnc12)C(Cl)(Cl)Cl [Salubrinal] + COc1cc2c(Oc3ccc(NC(=O)C4(C(=O)Nc5ccc(F)cc5)CC4)cc3F)ccnc2cc1OCCCN1CCOCC1 [Foretinib] (partner 0.25 µM)
Method in brief: as §1

Salubrinal + Linsitinib = compound: O=C(/C=C/c1ccccc1)NC(NC(=S)Nc1cccc2cccnc12)C(Cl)(Cl)Cl [Salubrinal] + C[C@]1(O)C[C@@H](c2nc(-c3ccc4ccc(-c5ccccc5)nc4c3)c3c(N)nccn32)C1 [Linsitinib] (partner 1 µM)
Method in brief: as §1

Cell Line: NCI-H596
- relative viability ([1]; first compound 0.04 µM): 1.16
- relative viability ([1]; first compound 0.1265 µM): 1.01
- relative viability ([1]; first compound 0.4 µM): 0.922
- relative viability ([1]; first compound 1.265 µM): 0.883
- relative viability ([1]; first compound 4 µM): 0.863
- relative viability (Salubrinal + Bortezomib; first compound 0.08 µM): 1.1
- relative viability (Salubrinal + Bortezomib; first compound 0.253 µM): 0.807
- relative viability (Salubrinal + Bortezomib; first compound 0.8 µM): 1.01
- relative viability (Salubrinal + Bortezomib; first compound 2.53 µM): 1.13
- relative viability (Salubrinal + Bortezomib; first compound 8 µM): 1
- relative viability (Salubrinal + Foretinib; first compound 0.08 µM): 0.949
- relative viability (Salubrinal + Foretinib; first compound 0.253 µM): 1.17
- relative viability (Salubrinal + Foretinib; first compound 0.8 µM): 0.809
- relative viability (Salubrinal + Foretinib; first compound 2.53 µM): 0.799
- relative viability (Salubrinal + Foretinib; first compound 8 µM): 0.701
- relative viability (Salubrinal + Linsitinib; first compound 0.08 µM): 1.07
- relative viability (Salubrinal + Linsitinib; first compound 0.253 µM): 0.936
- relative viability (Salubrinal + Linsitinib; first compound 0.8 µM): 1.17
- relative viability (Salubrinal + Linsitinib; first compound 2.53 µM): 1.1
- relative viability (Salubrinal + Linsitinib; first compound 8 µM): 0.903

Cell Line: A-427
- relative viability ([1]; first compound 0.04 µM): 0.229
- relative viability ([1]; first compound 0.1265 µM): 0.21
- relative viability ([1]; first compound 0.4 µM): 0.185
- relative viability ([1]; first compound 1.265 µM): 0.212
- relative viability ([1]; first compound 4 µM): 0.196
- relative viability (Salubrinal + Bortezomib; first compound 0.08 µM): 0.96
- relative viability (Salubrinal + Bortezomib; first compound 0.253 µM): 0.908
- relative viability (Salubrinal + Bortezomib; first compound 0.8 µM): 1.12
- relative viability (Salubrinal + Bortezomib; first compound 2.53 µM): 0.961
- relative viability (Salubrinal + Bortezomib; first compound 8 µM): 1.06
- relative viability (Salubrinal + Foretinib; first compound 0.08 µM): 0.993
- relative viability (Salubrinal + Foretinib; first compound 0.253 µM): 1.32
- relative viability (Salubrinal + Foretinib; first compound 0.8 µM): 1.18
- relative viability (Salubrinal + Foretinib; first compound 2.53 µM): 1.02
- relative viability (Salubrinal + Foretinib; first compound 8 µM): 1.17
- relative viability (Salubrinal + Linsitinib; first compound 0.08 µM): 1.12
- relative viability (Salubrinal + Linsitinib; first compound 0.253 µM): 1.2
- relative viability (Salubrinal + Linsitinib; first compound 0.8 µM): 1.1
- relative viability (Salubrinal + Linsitinib; first compound 2.53 µM): 1.08
- relative viability (Salubrinal + Linsitinib; first compound 8 µM): 1.22

Cell Line: EMC-BAC-2
- relative viability ([1]; first compound 0.04 µM): 0.297
- relative viability ([1]; first compound 0.1265 µM): 0.282
- relative viability ([1]; first compound 0.4 µM): 0.313
- relative viability ([1]; first compound 1.265 µM): 0.265
- relative viability ([1]; first compound 4 µM): 0.288
- relative viability (Salubrinal + Bortezomib; first compound 0.08 µM): 1.16
- relative viability (Salubrinal + Bortezomib; first compound 0.253 µM): 0.974
- relative viability (Salubrinal + Bortezomib; first compound 0.8 µM): 1.09
- relative viability (Salubrinal + Bortezomib; first compound 2.53 µM): 1.16
- relative viability (Salubrinal + Bortezomib; first compound 8 µM): 1.17
- relative viability (Salubrinal + Foretinib; first compound 0.08 µM): 0.975
- relative viability (Salubrinal + Foretinib; first compound 0.253 µM): 1
- relative viability (Salubrinal + Foretinib; first compound 0.8 µM): 1.21
- relative viability (Salubrinal + Foretinib; first compound 2.53 µM): 1.03
- relative viability (Salubrinal + Foretinib; first compound 8 µM): 0.98
- relative viability (Salubrinal + Linsitinib; first compound 0.08 µM): 0.901
- relative viability (Salubrinal + Linsitinib; first compound 0.253 µM): 0.682
- relative viability (Salubrinal + Linsitinib; first compound 0.8 µM): 0.856
- relative viability (Salubrinal + Linsitinib; first compound 2.53 µM): 0.77
- relative viability (Salubrinal + Linsitinib; first compound 8 µM): 0.858

Cell Line: NCI-H441
- relative viability ([1]; first compound 0.04 µM): 0.605
- relative viability ([1]; first compound 0.1265 µM): 0.631
- relative viability ([1]; first compound 0.4 µM): 0.716
- relative viability ([1]; first compound 1.265 µM): 0.625
- relative viability ([1]; first compound 4 µM): 0.685
- relative viability (Salubrinal + Bortezomib; first compound 0.08 µM): 0.392
- relative viability (Salubrinal + Bortezomib; first compound 0.253 µM): 0.516
- relative viability (Salubrinal + Bortezomib; first compound 0.8 µM): 0.386
- relative viability (Salubrinal + Bortezomib; first compound 2.53 µM): 0.372
- relative viability (Salubrinal + Bortezomib; first compound 8 µM): 0.362
- relative viability (Salubrinal + Foretinib; first compound 0.08 µM): 1.24
- relative viability (Salubrinal + Foretinib; first compound 0.253 µM): 0.917
- relative viability (Salubrinal + Foretinib; first compound 0.8 µM): 1.03
- relative viability (Salubrinal + Foretinib; first compound 2.53 µM): 0.947
- relative viability (Salubrinal + Foretinib; first compound 8 µM): 0.862
- relative viability (Salubrinal + Linsitinib; first compound 0.08 µM): 0.663
- relative viability (Salubrinal + Linsitinib; first compound 0.253 µM): 0.438
- relative viability (Salubrinal + Linsitinib; first compound 0.8 µM): 0.643
- relative viability (Salubrinal + Linsitinib; first compound 2.53 µM): 0.649
- relative viability (Salubrinal + Linsitinib; first compound 8 µM): 0.517

Cell Line: LCLC-103H
- relative viability ([1]; first compound 0.04 µM): 0.426
- relative viability ([1]; first compound 0.1265 µM): 0.525
- relative viability ([1]; first compound 0.4 µM): 0.384
- relative viability ([1]; first compound 1.265 µM): 0.427
- relative viability ([1]; first compound 4 µM): 0.439
- relative viability (Salubrinal + Bortezomib; first compound 0.08 µM): 0.97
- relative viability (Salubrinal + Bortezomib; first compound 0.253 µM): 0.971
- relative viability (Salubrinal + Bortezomib; first compound 0.8 µM): 1.2
- relative viability (Salubrinal + Bortezomib; first compound 2.53 µM): 1
- relative viability (Salubrinal + Bortezomib; first compound 8 µM): 1.15
- relative viability (Salubrinal + Foretinib; first compound 0.08 µM): 0.849
- relative viability (Salubrinal + Foretinib; first compound 0.253 µM): 0.687
- relative viability (Salubrinal + Foretinib; first compound 0.8 µM): 0.818
- relative viability (Salubrinal + Foretinib; first compound 2.53 µM): 0.768
- relative viability (Salubrinal + Foretinib; first compound 8 µM): 0.817
- relative viability (Salubrinal + Linsitinib; first compound 0.08 µM): 1.14
- relative viability (Salubrinal + Linsitinib; first compound 0.253 µM): 1
- relative viability (Salubrinal + Linsitinib; first compound 0.8 µM): 1.02
- relative viability (Salubrinal + Linsitinib; first compound 2.53 µM): 1.22
- relative viability (Salubrinal + Linsitinib; first compound 8 µM): 1.01

Cell Line: HCC-827
- relative viability ([1]; first compound 0.04 µM): 0.465
- relative viability ([1]; first compound 0.1265 µM): 0.433
- relative viability ([1]; first compound 0.4 µM): 0.454
- relative viability ([1]; first compound 1.265 µM): 0.459
- relative viability ([1]; first compound 4 µM): 0.425
- relative viability (Salubrinal + Bortezomib; first compound 0.08 µM): 0.98
- relative viability (Salubrinal + Bortezomib; first compound 0.253 µM): 0.955
- relative viability (Salubrinal + Bortezomib; first compound 0.8 µM): 1.23
- relative viability (Salubrinal + Bortezomib; first compound 2.53 µM): 1.05
- relative viability (Salubrinal + Bortezomib; first compound 8 µM): 1.07
- relative viability (Salubrinal + Foretinib; first compound 0.08 µM): 1.02
- relative viability (Salubrinal + Foretinib; first compound 0.253 µM): 1.02
- relative viability (Salubrinal + Foretinib; first compound 0.8 µM): 1.07
- relative viability (Salubrinal + Foretinib; first compound 2.53 µM): 0.956
- relative viability (Salubrinal + Foretinib; first compound 8 µM): 1.09
- relative viability (Salubrinal + Linsitinib; first compound 0.08 µM): 0.992
- relative viability (Salubrinal + Linsitinib; first compound 0.253 µM): 0.9
- relative viability (Salubrinal + Linsitinib; first compound 0.8 µM): 1
- relative viability (Salubrinal + Linsitinib; first compound 2.53 µM): 0.97
- relative viability (Salubrinal + Linsitinib; first compound 8 µM): 0.941

Cell Line: NCI-H1355
- relative viability ([1]; first compound 0.04 µM): 0.565
- relative viability ([1]; first compound 0.1265 µM): 0.517
- relative viability ([1]; first compound 0.4 µM): 0.611
- relative viability ([1]; first compound 1.265 µM): 0.546
- relative viability ([1]; first compound 4 µM): 0.553
- relative viability (Salubrinal + Bortezomib; first compound 0.08 µM): 1.32
- relative viability (Salubrinal + Bortezomib; first compound 0.253 µM): 1.15
- relative viability (Salubrinal + Bortezomib; first compound 0.8 µM): 1.2
- relative viability (Salubrinal + Bortezomib; first compound 2.53 µM): 1.32
- relative viability (Salubrinal + Bortezomib; first compound 8 µM): 1.22
- relative viability (Salubrinal + Foretinib; first compound 0.08 µM): 1.08
- relative viability (Salubrinal + Foretinib; first compound 0.253 µM): 1.01
- relative viability (Salubrinal + Foretinib; first compound 0.8 µM): 0.977
- relative viability (Salubrinal + Foretinib; first compound 2.53 µM): 0.951
- relative viability (Salubrinal + Foretinib; first compound 8 µM): 0.883
- relative viability (Salubrinal + Linsitinib; first compound 0.08 µM): 0.976
- relative viability (Salubrinal + Linsitinib; first compound 0.253 µM): 0.797
- relative viability (Salubrinal + Linsitinib; first compound 0.8 µM): 0.856
- relative viability (Salubrinal + Linsitinib; first compound 2.53 µM): 0.89
- relative viability (Salubrinal + Linsitinib; first compound 8 µM): 0.751

Cell Line: NCI-H1734
- relative viability ([1]; first compound 0.04 µM): 0.275
- relative viability ([1]; first compound 0.1265 µM): 0.258
- relative viability ([1]; first compound 0.4 µM): 0.211
- relative viability ([1]; first compound 1.265 µM): 0.237
- relative viability ([1]; first compound 4 µM): 0.243
- relative viability (Salubrinal + Bortezomib; first compound 0.08 µM): 0.9
- relative viability (Salubrinal + Bortezomib; first compound 0.253 µM): 0.941
- relative viability (Salubrinal + Bortezomib; first compound 0.8 µM): 1.11
- relative viability (Salubrinal + Bortezomib; first compound 2.53 µM): 0.969
- relative viability (Salubrinal + Bortezomib; first compound 8 µM): 0.981
- relative viability (Salubrinal + Foretinib; first compound 0.08 µM): 0.944
- relative viability (Salubrinal + Foretinib; first compound 0.253 µM): 0.774
- relative viability (Salubrinal + Foretinib; first compound 0.8 µM): 0.981
- relative viability (Salubrinal + Foretinib; first compound 2.53 µM): 0.841
- relative viability (Salubrinal + Foretinib; first compound 8 µM): 0.779
- relative viability (Salubrinal + Linsitinib; first compound 0.08 µM): 0.931
- relative viability (Salubrinal + Linsitinib; first compound 0.253 µM): 0.858
- relative viability (Salubrinal + Linsitinib; first compound 0.8 µM): 1.02
- relative viability (Salubrinal + Linsitinib; first compound 2.53 µM): 0.976
- relative viability (Salubrinal + Linsitinib; first compound 8 µM): 0.826
